Results from ChEMBL document CHEMBL1201862, “PubChem BioAssay data set” (2004).
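Where inhibition never reached the appropriate level, the endpoint shown equals the highest concentration tested. Otherwise, values were interpolated linearly from a five-concentration, 48-hour dose response in 96-well plates. GI50 is the concentration that inhibits growth by half.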 Calls of active or inactive are those of the source. Rule as the data show it: active = GI50 up to about 1.1 µM and inactive = higher.

Assays:
Experiment in all cases: NCI anticancer screen, dose series, 48 h
MOLT-4 = tested on: MOLT-4
HCT-15 = tested on: HCT-15
M14 = tested on: M14
A549 = tested on: A549
RXF 393 = tested on: RXF 393
DU-145 = tested on: DU-145
SK-MEL-5 = tested on: SK-MEL-5
A498 = tested on: A498
SNB-19 = tested on: SNB-19
CAKI-1 = tested on: CAKI-1
NCI/ADR-RES = tested on: NCI/ADR-RES
SK-MEL-28 = tested on: SK-MEL-28
NCI-H460 = tested on: NCI-H460
MDA-MB-231 = tested on: MDA-MB-231
NCI-H226 = tested on: NCI-H226
NCI-H23 = tested on: NCI-H23
SK-OV-3 = tested on: SK-OV-3
MDA-MB-435 = tested on: MDA-MB-435
OVCAR-8 = tested on: OVCAR-8
HOP-62 = tested on: HOP-62

SMILES | GI50 (MOLT-4) | GI50 (HCT-15) [µM] | GI50 (M14) | GI50 (A549) | GI50 (RXF 393) | GI50 (DU-145) | GI50 (SK-MEL-5) | GI50 (A498) | GI50 (SNB-19) | GI50 (CAKI-1) | GI50 (NCI/ADR-RES) | GI50 (SK-MEL-28) | GI50 (NCI-H460) | GI50 (MDA-MB-231) | GI50 (NCI-H226) | GI50 (NCI-H23) | GI50 (SK-OV-3) | GI50 (MDA-MB-435) | GI50 (OVCAR-8) | GI50 (HOP-62)
Nc1nc2cc3nc(N)c(N)nc3cc2nc1N | 92.9 µM (inactive) | > 100 | > 100 µM (inactive) | > 100 µM (inactive) | > 100 µM (inactive) | > 100 µM (inactive) | > 100 µM (inactive) | > 100 µM (inactive) | > 100 µM (inactive) | > 100 µM (inactive) | > 100 µM (inactive) | > 100 µM (inactive) | > 100 µM (inactive) | > 100 µM (inactive) | > 100 µM (inactive) | > 100 µM (inactive) | > 100 µM (inactive) | > 100 µM (inactive) | > 100 µM (inactive) | 
Cc1cccc(NC(=O)CC(=O)N2N=C(N3c4ccccc4Sc4ccccc43)CC2c2ccccc2)c1 (stereo not given) | > 100 µM (inactive) | > 100 | > 100 µM (inactive) | > 100 µM (inactive) | > 100 µM (inactive) | > 100 µM (inactive) | > 100 µM (inactive) | > 100 µM (inactive) | > 100 µM (inactive) |  | > 100 µM (inactive) | > 100 µM (inactive) | > 100 µM (inactive) | > 100 µM (inactive) | > 100 µM (inactive) | > 100 µM (inactive) | > 100 µM (inactive) | > 100 µM (inactive) | > 100 µM (inactive) | > 100 µM (inactive)
Oc1cc(O)cc(-c2nc3cc(F)ccc3s2)c1 |  | 19.7 | 19.4 µM (inactive) | 26.1 µM (inactive) | 22.7 µM (inactive) | 32.8 µM (inactive) | 17.5 µM (inactive) | 18.5 µM (inactive) | 23.7 µM (inactive) | 25.5 µM (inactive) | 36.8 µM (inactive) | 48.8 µM (inactive) | 22.8 µM (inactive) | 25.6 µM (inactive) | 25.8 µM (inactive) | 26.4 µM (inactive) | 25.8 µM (inactive) | 30.5 µM (inactive) | 22.6 µM (inactive) | 
CC(C)N1CCN(c2ccc(OCC3COC(Cn4cncn4)(c4ccc(Cl)cc4Cl)O3)cc2)CC1 (stereo not given) [TERCONAZOLE] | 10.9 µM (inactive) | 9.53 |  | > 35.8 µM (inactive) | 11.6 µM (inactive) | 16.3 µM (inactive) | 2.18 µM (inactive) | 14 µM (inactive) | > 42.1 µM (inactive) | 17.3 µM (inactive) | 16.7 µM (inactive) | 4.63 µM (inactive) | 14.6 µM (inactive) | 14 µM (inactive) | 15 µM (inactive) | 14.2 µM (inactive) | 13.5 µM (inactive) | 4.97 µM (inactive) | 17.3 µM (inactive) | 13.8 µM (inactive)
CN(C)C1C(O)=C(C(=O)NCN2CCCC2)C(=O)C2(O)C(O)=C3C(=O)c4c(O)cccc4C(C)(O)C3CC12 (stereo not given) | 40 µM (inactive) | > 100 | 77.3 µM (inactive) | 69.3 µM (inactive) | > 100 µM (inactive) | 62.2 µM (inactive) | > 100 µM (inactive) | > 100 µM (inactive) | > 100 µM (inactive) | > 100 µM (inactive) | > 100 µM (inactive) | > 100 µM (inactive) |  | 29.2 µM (inactive) | > 100 µM (inactive) | 63.5 µM (inactive) | > 100 µM (inactive) | 34.5 µM (inactive) | > 100 µM (inactive) | > 100 µM (inactive)
C=CCn1c(-c2ccc(/N=N/Nc3ccc(-c4n[nH]c(=S)n4CC=C)cc3)cc2)n[nH]c1=S | 2.01 µM (inactive) | 4.59 | 3.03 µM (inactive) | 3.52 µM (inactive) | 13.9 µM (inactive) | 3.65 µM (inactive) | 1.53 µM (inactive) | > 100 µM (inactive) | 27 µM (inactive) | 4.57 µM (inactive) | 21.4 µM (inactive) | 6.9 µM (inactive) |  | 22 µM (inactive) | 2.32 µM (inactive) | 3.22 µM (inactive) | 11.7 µM (inactive) | 3.33 µM (inactive) | 2.8 µM (inactive) | 3.4 µM (inactive)
N#Cc1c(NC(=S)Nc2ccccc2)sc2c1CCCC2 | > 100 µM (inactive) | > 100 |  |  | > 100 µM (inactive) | > 100 µM (inactive) | > 100 µM (inactive) | > 100 µM (inactive) | > 100 µM (inactive) | > 100 µM (inactive) | > 100 µM (inactive) | > 100 µM (inactive) | > 100 µM (inactive) | > 100 µM (inactive) | > 100 µM (inactive) | > 100 µM (inactive) |  | > 100 µM (inactive) | > 100 µM (inactive) | > 100 µM (inactive)
